Assay results taken from PMC8873415, “Comprehensive assessment of NR ligand polypharmacology by a multiplex reporter NR assay” (Scientific Reports, 2022).
pEC50: −log10 of the molar value. Where two headings read alike, the source gives them in different places.

Assays:
[1] = target: GR (Homo sapiens, UniProt P04150)
[2] = target: T1, PPARδ (Homo sapiens, UniProt Q03181); assay type: cell-based
T1 construct: expressed in transfected cells; host or cells: HepG2 (HG19 clone)

[3] = target: T2, PXR (Homo sapiens, UniProt O75469)
T2 sequence (O75469 146-433 limits assumed): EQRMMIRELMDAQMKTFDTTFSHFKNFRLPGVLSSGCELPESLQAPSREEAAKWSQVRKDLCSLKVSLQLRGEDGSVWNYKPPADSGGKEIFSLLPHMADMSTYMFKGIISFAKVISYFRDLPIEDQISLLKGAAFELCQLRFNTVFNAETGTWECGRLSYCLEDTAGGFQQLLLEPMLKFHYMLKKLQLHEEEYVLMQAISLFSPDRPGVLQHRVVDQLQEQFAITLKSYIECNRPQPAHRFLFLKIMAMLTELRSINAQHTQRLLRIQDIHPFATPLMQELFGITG

[4] = target: T3, FXR (Homo sapiens, UniProt Q96RI1); assay type: cell-based; conditions: 24 h
T3 construct: expressed in transfected cells; host or cells: HepG2 (HG19 clone)

[5] = target: T4, PR (Homo sapiens, UniProt P06401); assay type: cell-based; conditions: for pEC50: HepG2 HG19 cells, 24 h, read-out: EC50 by Factorial NR, PR
T4 construct: expressed in transfected cells; host or cells: HepG2 (HG19 clone)
T4 sequence (P06401 679-913 limits assumed): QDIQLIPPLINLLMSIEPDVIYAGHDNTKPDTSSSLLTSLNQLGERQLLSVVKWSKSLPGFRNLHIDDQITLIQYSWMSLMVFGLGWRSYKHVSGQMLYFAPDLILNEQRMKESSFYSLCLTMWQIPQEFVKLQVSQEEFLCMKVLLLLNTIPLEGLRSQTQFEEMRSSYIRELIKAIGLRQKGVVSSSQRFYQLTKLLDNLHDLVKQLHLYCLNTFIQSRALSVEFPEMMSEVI

[6] = target: T5, PPARγ (Homo sapiens, UniProt P37231); assay type: cell-based; conditions: ligand- vs vehicle-treated cells, 24 h
T5 construct: expressed in transfected cells; host or cells: HepG2 (HG19 clone)
T5 sequence (P37231 238-503 limits assumed): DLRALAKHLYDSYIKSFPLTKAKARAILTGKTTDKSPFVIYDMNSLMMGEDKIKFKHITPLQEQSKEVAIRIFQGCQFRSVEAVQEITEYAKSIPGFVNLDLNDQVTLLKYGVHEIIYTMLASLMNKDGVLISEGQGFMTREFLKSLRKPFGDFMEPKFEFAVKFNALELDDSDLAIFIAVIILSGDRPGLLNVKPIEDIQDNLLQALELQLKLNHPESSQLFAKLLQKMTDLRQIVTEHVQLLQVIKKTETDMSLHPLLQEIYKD

[7] = target: T6, ERRα (Homo sapiens, UniProt P11474); assay type: cell-based; conditions: antagonist- vs vehicle-treated cells, 24 h
T6 construct: expressed in transfected cells; host or cells: HepG2 (HG19 clone)

[8] = target: T7, PPARα (Homo sapiens, UniProt Q07869); assay type: cell-based
T7 construct: expressed in transfected cells; host or cells: HepG2 (HG19 clone)
T7 sequence (Q07869 239-466 limits assumed): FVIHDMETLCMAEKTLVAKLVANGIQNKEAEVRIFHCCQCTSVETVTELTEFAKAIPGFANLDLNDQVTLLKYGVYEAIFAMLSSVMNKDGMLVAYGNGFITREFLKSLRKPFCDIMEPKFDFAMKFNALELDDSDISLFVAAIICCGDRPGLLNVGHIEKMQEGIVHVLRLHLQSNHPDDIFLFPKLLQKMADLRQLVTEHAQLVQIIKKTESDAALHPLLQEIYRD

[9] = target: T8, MR (Homo sapiens, UniProt P08235); assay type: cell-based; conditions: ligand- vs vehicle-treated cells, 24 h
T8 construct: expressed in transfected cells; host or cells: HepG2 (HG19 clone)

[10] = target: T9, NURR1 (Homo sapiens, UniProt P43354); assay type: cell-based; conditions: inhibitor 2 µM, TBT 0.1 µM
T9 construct: expressed in transfected cells; host or cells: HepG2 (HG19 clone)

[11] = test system: RXRs; assay type: cell-based, human; conditions: inhibitor 2 µM, TBT 0.1 µM
[12] = target: T10, ERβ (Homo sapiens, UniProt Q92731); assay type: cell-based
T10 construct: expressed in transfected cells; host or cells: HepG2 (HG19 clone)

[13] = target: T11, ERRγ (Homo sapiens, UniProt P62508); assay type: cell-based; conditions: E2/4-HT vs E2-treated cells, 24 h
T11 construct: expressed in transfected cells; host or cells: HepG2 (HG19 clone)

[14] = test system: FXR; conditions: Fexaramine; ref Downes, 2003; read-out: EC50 range, literature data, FXR; cited from earlier work
[15] = target: T2, PXR; conditions: ligand- vs vehicle-treated cells, 24 h
[16] = target: ERα (Homo sapiens, UniProt P03372); conditions: at 20mM (or lower), percentage of estradiol
[17] = target: AR (Homo sapiens, UniProt P10275); conditions: at 20mM (or lower), percentage of testosterone
[18] = ligand- vs vehicle-treated cells, 24 h

T10 sequence (Q92731 264-498 limits assumed): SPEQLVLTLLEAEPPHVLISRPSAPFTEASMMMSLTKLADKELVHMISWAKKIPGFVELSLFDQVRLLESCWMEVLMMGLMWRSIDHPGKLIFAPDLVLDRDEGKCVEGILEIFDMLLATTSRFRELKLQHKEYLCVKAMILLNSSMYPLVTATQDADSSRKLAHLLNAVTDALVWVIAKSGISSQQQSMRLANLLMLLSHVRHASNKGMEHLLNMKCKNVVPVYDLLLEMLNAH
T3 sequence (Q96RI1 262-486 limits assumed): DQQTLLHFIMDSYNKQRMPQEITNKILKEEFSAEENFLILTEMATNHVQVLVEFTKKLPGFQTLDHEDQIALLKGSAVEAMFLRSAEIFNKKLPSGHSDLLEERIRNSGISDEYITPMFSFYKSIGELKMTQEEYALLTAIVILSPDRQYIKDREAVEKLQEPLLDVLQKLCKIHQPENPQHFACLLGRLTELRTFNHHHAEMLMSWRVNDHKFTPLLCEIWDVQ
GR, sequence (P04150 524-758 limits assumed): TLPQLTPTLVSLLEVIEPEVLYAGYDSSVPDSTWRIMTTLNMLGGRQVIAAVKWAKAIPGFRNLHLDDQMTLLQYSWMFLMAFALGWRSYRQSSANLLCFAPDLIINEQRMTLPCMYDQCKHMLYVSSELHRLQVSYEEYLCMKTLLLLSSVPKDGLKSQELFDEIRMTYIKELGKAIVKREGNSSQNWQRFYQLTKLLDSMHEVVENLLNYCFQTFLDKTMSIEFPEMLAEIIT
T1 sequence (Q03181 211-439 limits assumed): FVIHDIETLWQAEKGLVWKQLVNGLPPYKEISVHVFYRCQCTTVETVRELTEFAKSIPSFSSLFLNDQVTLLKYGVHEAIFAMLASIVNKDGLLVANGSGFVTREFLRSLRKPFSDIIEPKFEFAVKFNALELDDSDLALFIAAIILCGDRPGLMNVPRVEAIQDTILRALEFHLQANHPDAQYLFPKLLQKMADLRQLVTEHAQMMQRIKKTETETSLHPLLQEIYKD
T9 sequence (P43354 360-595 limits assumed): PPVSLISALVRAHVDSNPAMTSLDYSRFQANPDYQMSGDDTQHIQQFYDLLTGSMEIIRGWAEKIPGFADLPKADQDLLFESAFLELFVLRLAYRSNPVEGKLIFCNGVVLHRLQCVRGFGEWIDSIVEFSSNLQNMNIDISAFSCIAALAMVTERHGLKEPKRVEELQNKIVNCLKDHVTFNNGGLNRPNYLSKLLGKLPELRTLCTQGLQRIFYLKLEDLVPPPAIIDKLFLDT
T6 sequence (P11474 193-421 limits assumed): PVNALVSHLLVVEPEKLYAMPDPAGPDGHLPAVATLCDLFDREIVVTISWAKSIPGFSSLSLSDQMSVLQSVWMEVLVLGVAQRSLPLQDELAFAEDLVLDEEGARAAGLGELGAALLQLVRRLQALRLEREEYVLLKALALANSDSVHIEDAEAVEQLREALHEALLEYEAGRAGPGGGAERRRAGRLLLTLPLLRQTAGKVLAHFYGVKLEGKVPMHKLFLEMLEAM
AR, sequence (P10275 669-900 limits assumed): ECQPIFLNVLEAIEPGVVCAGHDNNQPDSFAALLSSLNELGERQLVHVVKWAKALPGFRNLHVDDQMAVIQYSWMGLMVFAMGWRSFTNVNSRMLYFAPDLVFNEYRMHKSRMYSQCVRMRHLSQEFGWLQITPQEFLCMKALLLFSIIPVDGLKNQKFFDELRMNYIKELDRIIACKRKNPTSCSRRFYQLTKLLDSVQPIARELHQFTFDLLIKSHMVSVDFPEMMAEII
T8 sequence (P08235 726-964 limits assumed): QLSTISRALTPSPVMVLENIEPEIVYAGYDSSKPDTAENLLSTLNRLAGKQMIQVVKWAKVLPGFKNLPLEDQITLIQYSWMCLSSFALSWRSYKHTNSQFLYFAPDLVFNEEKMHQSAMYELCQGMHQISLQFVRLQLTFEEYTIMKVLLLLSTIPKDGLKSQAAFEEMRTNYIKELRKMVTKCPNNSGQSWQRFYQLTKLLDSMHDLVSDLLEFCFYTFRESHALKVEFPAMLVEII
T11 sequence (P62508 233-457 limits assumed): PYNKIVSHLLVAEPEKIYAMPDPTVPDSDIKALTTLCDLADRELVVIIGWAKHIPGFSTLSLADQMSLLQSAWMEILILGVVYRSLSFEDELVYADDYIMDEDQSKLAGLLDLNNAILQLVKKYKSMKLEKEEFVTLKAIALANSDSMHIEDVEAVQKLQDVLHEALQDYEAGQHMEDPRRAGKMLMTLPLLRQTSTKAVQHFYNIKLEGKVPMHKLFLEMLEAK
ERα, sequence (P03372 311-547 limits assumed): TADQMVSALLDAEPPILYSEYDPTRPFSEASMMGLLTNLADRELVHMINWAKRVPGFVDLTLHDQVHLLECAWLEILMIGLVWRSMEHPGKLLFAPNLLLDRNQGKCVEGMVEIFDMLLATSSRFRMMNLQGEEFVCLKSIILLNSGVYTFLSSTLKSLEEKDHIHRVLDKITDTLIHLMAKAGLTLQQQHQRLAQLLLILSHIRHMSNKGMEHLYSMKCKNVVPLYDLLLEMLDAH

## C#C[C@]1(OC(C)=O)CC[C@H]2[C@@H]3CCC4=CC(=NO)CC[C@@H]4[C@H]3CC[C@@]21CC (mixture of isomers) [NGS, norgestimate]
[1]; [18]
  GR response in the NR activity profile: weak activity

## CCC[CH2][Sn]([Cl])([CH2]CCC)[CH2]CCC [tributyltin chloride, Tributyltin chloride]
[2]
  PPARδ response in the NR activity profile: activation
[3]
  PXR response in the NR activity profile: activation

## C#C[C@]1(OC(C)=O)CC[C@H]2[C@@H]3CCC4=C[C@@H](OC(C)=O)CC[C@@H]4[C@H]3CC[C@@]21C [ETD, ethynodiol diacetate]
[4]; ligand- vs vehicle-treated cells
  FXR response in the NR activity profile: activated
[5]
  pEC50: 9.02

## CC(=O)[C@H]1CC[C@H]2[C@@H]3CCC4=CC(=O)CC[C@]4(C)[C@H]3CC[C@]12C [Progesterone]
[3]
  PXR response in the NR activity profile: PXR activation

## COc1cc(/C=C(\C#N)C(=O)Nc2nnc(C(F)(F)F)s2)ccc1OCc1ccc(C(F)(F)F)cc1C(F)(F)F [XCT790]
[6]
  PPARγ response in the NR activity profile: activated
[7]
  ERRα response in the NR activity profile: inhibited

## O=C(Nc1ccncc1)c1cc([N+](=O)[O-])ccc1Cl [T0070907]
[8]; inhibitor 2 µM, Pio 5 µM
  effect on PPARα response to pioglitazone, competitive mode: inhibited
[2]; inhibitor 2 µM, TBT 0.1 µM
  effect on PPARδ activation by tributyltin (TBT), competitive mode: inhibited

## C[C@@H]1C[C@H]2[C@@H]3CCC4=CC(=O)C=C[C@]4(C)[C@@]3(F)[C@@H](O)C[C@]2(C)[C@@]1(O)C(=O)CO [Dexamethasone]
[9]
  MR response in the NR activity profile: significantly activated
[1]
  GR response in the NR activity profile: significantly activated

## CCc1ccc(CCOc2ccc(CC3SC(=O)NC3=O)cc2)nc1 (centres unmarked) [Pioglitazone]
[8]; [18]
  PPARα response in the NR activity profile: activated

## CCCCCOc1cc2c(cc1-c1cc(/C=C/C(=O)O)ccc1O)C(C)(C)CCC2(C)C [UVI3003]
[10]
  effect on TBT-induced activation of NURR1, competitive mode: inhibited
[11]
  effect on TBT-induced activation of RXRs, competitive mode: inhibited

## CC/C(=C(\c1ccc(O)cc1)c1ccc(OCCN(C)C)cc1)c1ccccc1 [4-Hydroxytamoxifen]
[12]
  ERβ response in the differential NR activity profile: inhibition
  effect on LVG-induced ERβ activation, competitive mode: inhibited
[13]
  ERRγ response in the NR activity profile: inhibition

## COC(=O)/C=C/c1cccc(N(Cc2ccc(-c3ccc(N(C)C)cc3)cc2)C(=O)C2CCCCC2)c1 [Fexaramine]
[4]; HepG2 HG19 cells, read-out: EC50 by Factorial NR, FXR
  pEC50: 6.28
[14]
  pEC50: 6.59

## C[C@H](CCC(=O)O)[C@H]1CC[C@H]2[C@@H]3[C@H](O)C[C@@H]4C[C@H](O)CC[C@]4(C)[C@H]3CC[C@]12C [CDCA, Chenodeoxycholic acid]
[15]
  PXR response in the NR activity profile: PXR activation

## C#C[C@]1(O)C=C[C@H]2[C@@H]3CCC4=CC(=O)CC[C@@H]4[C@H]3CC[C@@]21CC [GST, gestodene]
[12]; at 20mM (or lower), percentage of estradiol
  Relative Emax vs. hormones, ERb: 40.34%
[5]
  pEC50: 10.28
[5]; at 20mM (or lower), percentage of progesterone
  Relative Emax vs. hormones, PR; Rel. Emax (% of prog.): 129.75%
[16]
  Relative Emax vs. hormones, ERa: 84.22%
[17]
  Relative Emax vs. hormones, AR: 79.92%
